Assay results from article PMC12881681 (Molecular Pharmacology, 2025).

What was measured:
[1] = Pharmacokinetics study in mice: erlotinib pretreatment, carbazeran and 4-oxo-carbazeran; type: in vivo, BALB/c mice; conditions: erlotinib 100 mg/kg p.o.
Protocol: BALB/c mice (male, ∼8 weeks old) were purchased and housed at the Biological Resource Centre, Agency for Science, Technology and Research (A∗STAR). The experimental protocol was approved by the A∗STAR Institutional Review Board. […] Blood (12.5 μL) was drawn from the tail vein (with a needle prick) at various times (0.25, 0.5, 0.75, 1, 2, 3, 4, 6, and 8 hours) after carbazeran dosing. The blood samples were diluted 2 times with 12.5 μL of water. Acetonitrile containing the internal standard (carbazeran-d4, 4 nM in 75 μL acetonitrile and 3 nM in final sample volume of 100 μL) was added to the blood samples to precipitate proteins. […] Blank and standard calibration samples were prepared from control mice that were not treated with any chemicals. Pharmacokinetic data were analyzed by noncompartmental analysis using Phoenix WinNonlin 6.3 (Certara).
At the end of the last blood collection (8 hour post-carbazeran dosing), the mice were sacrificed. […] The tissue samples were homogenized, and a 12.5 μL aliquot of the homogenate was diluted with an equal volume of water. Acetonitrile containing the internal standard (carbazeran-d4, 4 nM in 75 μL acetonitrile and 3 nM in final sample volume of 100 μL) was added to the diluted tissue samples (25 μL) to precipitate the proteins.

[2] = test system: AOX1; conditions: zoniporide as AOX substrate; cited from earlier work
[3] = set-up: method as in PMID 26330331; conditions: mice, oral dosing; cited from earlier work

C#Cc1cccc(Nc2ncnc3cc(OCCOC)c(OCCOC)cc23)c1 [Erlotinib]
concentration of 4-oxo-carbazeran metabolite in liver and kidneys ([1]; 8 hours after carbazeran): decreased the concentration | concentration of carbazeran in liver and kidneys ([1]; 8 hours after carbazeran): increased the concentration | concentration of 4-oxo-carbazeran metabolite in blood vs vehicle-treated control ([1]; all time points to 8 h): far lesser concentration | concentration of carbazeran in blood vs vehicle-treated control ([1]; all time points to 8 h): greater concentration | Ki [2]: 720 nM | elimination half-life [3]: 42 min
